Here are results for 3 molecules from patent publication US20180238860A1, “INDIVIDUAL METHOD PREDICTIVE OF THE DNA-BREAKING GENOTOXIC EFFECTS OF CHEMICAL OR BIOCHEMICAL AGENTS” (priority 2015, published 2018).

Series [1] has as its system HMEC cells. Nature of the series: pH2AX foci 24 h after contacting, Table 4 lower part (HMEC endothelial cells). It counts as cell-based, human. Particulars: line cell blank (below Hasp), 24 hours after contacting. As for the experimental part:
(§1) In one embodiment, on receipt, the tissue sample (typically the biopsy) is established in the form of an amplifiable cell line without a viral or chemical transformation agent according to an ancillary procedure well known to culture laboratories, as underlined by the publication of Elkind et al. “The radiobiology of cultured mammalian cell”, Gordon and Breach (1967). Once the number of cells is sufficient (typically after 1 to 3 weeks), the first experiments are carried out using the process according to the invention. A cell sample is prepared: The cells are inoculated on glass coverslips in Petri dishes. A portion of these coverslips are contaminated with metals or pesticides or any other DNA-breaking chemical or biochemical agent at different concentrations. A further portion is not contaminated; it represents the spontaneous state. During contamination, the cells remain in the culture incubator at 37° C.
(§2) For the contaminated cells, characteristics are acquired corresponding to the state after an incubation time with the DNA-breaking chemical or biochemical agent. Said characteristics are represented by foci corresponding to the marker pH2AX. The cells on glass coverslips are then fixed, lysed and hybridized. The following procedure, known per se (Bodgi et al, “A single formula to describe radiation-induced protein relocalization: towards a mathematical definition of individual radiosensitivity”, J Theor Biol. 21 p 333:135-45.2013):
(§3) the cells are fixed in 3% paraformaldehyde and 2% sucrose for 15 minutes at ambient temperature and permeabilized in 20 mM HEPES buffer solution (4-(2-hydroxyethyl)-1-piperazine ethane sulfonic acid) at pH 7.4, 50 mM NaCl, 3 mM MgCl2, 300 mM sucrose, 0.5% Triton X-100 (a non-ionic surfactant having the formula t-Oct-C6H4-(OCH2CH2)×OH where x=9-10, CAS No. 9002-93-1, supplied for example by Sigma Aldrich) for 3 minutes. The glass coverslips are then washed in phosphate buffer saline (known as the acronym PBS) before immunological staining. The incubation took place for 40 min at 37° C. in PBS supplemented with 2% bovine serum albumin (known as the acronym BSA or fraction V, supplied for example by Sigma Aldrich) and was followed by a wash with PBS. Anti-pH2AX primary antibodies are used at a concentration of 1:800. The incubations with anti-mouse FITC or anti-rabbit TRITC secondary antibodies (1:100, supplied by Sigma Aldrich) were performed at 37° C. in 2% BSA for 20 minutes. Glass coverslips were treated with Vectashield™ containing DAPI (4,6-Diamidino-2-phenylindole) to label the nucleus. Staining with DAPI also makes it possible, indirectly, to determine the number of cells in phase G1 (nuclei with homogenous DAPI staining), in phase S (nuclei with numerous pH2AX foci), in phase G2 (nuclei with heterogeneous DAPI staining) and metaphases (visible chromosomes).
(§4) The results are acquired using these coverslips on an immunofluorescence microscope (Olympus model for example). The reading may be direct (typically by counting the foci on at least 50 cells in G0/G1 for each point) or using dedicated image analysis software, or on an automated microscope; preferably the software or automated microscope methods are calibrated with manual determinations.
(§5) The tables hereinafter summarize the results of numerous experiments which were carried out as described in the “Detailed description” section above.
(§6) In tables 3 and 4, “pH2AX” corresponds to the mean number of nuclear foci obtained with the marker pH2AX, 24 hours after contacting the cell sample with the chemical agent at the concentration C (NpH2AX(24 h, C)), and where “Micronuclei” corresponds to the mean number of micronuclei observed per 100 cells 24 hours after contacting the cell sample with the chemical agent at the concentration C(NMN(24 h, C)).

In series [2] the test system is pH2AX nuclear foci (DNA double-strand breaks). Nature of the series: Single toxicity scale: reference concentration Cref and risk group prediction from NpH2AX(24 h). In kind it is cell-based, human. Particulars: for Reference concentration Cref: NpH2AX(24 h) < 2; for Prediction based on algorithm: concentration above which “Group III” risk: NpH2AX(24 h) > 8. As for the experimental part: (i) if the reference concentration has not previously been determined by the chemical or biochemical agent to be studied, a cell sample is prepared by dispersion and/or amplification of so-called reference cells (sensitivity group I); a plurality of concentrations within a broad concentration range of said breaking agent (said concentration range ranging for example from nM to mM) is applied for a predetermined period of time (preferably 24 hours) on this cell sample; pH2AX immunofluorescence is performed with DAPI counterstaining which also enables on the same cell sample the analysis of micronuclei for all the concentrations applied.
(ii) Either the mean number of nuclear foci observed with the marker pH2AX at the observation times t and at the concentration C (this mean number being referred to as NpH2AX(t, C)), or the mean number of micronuclei per 100 cells at the observation times t and at the concentration C (this mean number being referred to as NMN(t, C)), or the standard error a corresponding to the error committed on these respective measurements which must be performed on at least 50 nuclei once (Gaussian standard error) or 3 independent experiments of 50 nuclei (standard error of the mean).
(iii) The so-called reference concentration Cref is the concentration giving:
NpH2AX(24 h,Cref)+2σ=2 or indeed NMN(24 h,Cref)+2σ=2%;
If for the cell sample NpH2AX(24 h, Cref)<=2 or NMN(24 h, Cref)<=0.5%, preferably NMN(24 h, Cref)<=1% or even more preferentially NMN(24 h, Cref)<=2%, then the genotoxic risk is considered to be low or described as “Group I”
The experimental data presented in table 4 above were used to determine the reference concentration Cref particularly for Pb(NO3)2 (Cref<1 μM) and CdCl2 (Cref=10 μM).
Table 5 presents numerical examples of correspondence between the single toxicity scale according to the invention and the corresponding clinical signs.

In series [3] the test system is HMEC cells. Nature of the series: Micronuclei per 100 cells 24 h after contacting, Table 4 lower part (HMEC). In kind it is cell-based, human. The settings on record: line cell blank (below Hasp). The method, then:
as §1, §3
(§7) Counterstaining with DAPI (a DNA marker known to those skilled in the art) makes it possible to locate the nucleus to situate the cytoplasmic or nuclear location to quantify the micronuclei, which are complementary cell markers to the data on the foci.
as §5, §6

For another series, the system named is 1BR3 (control cells). Nature of the series: pH2AX foci immunofluorescence 24 h after contacting, 1BR3 control fibroblasts. It counts as cell-based, human. The settings on record: for pH2AX(24) + 2xSEM / pH2AX(24): 1BR3; for pH2AX(24) + 2xSEM: 24 hours; for pH2AX(24): 24 hours after contacting. The method, then:
as §1, §2, §3, §4
(§8) Commercial 1BR3 and 149 BR control fibroblasts were amplified according to the recommendations of the supplier (SIGMA-ALDRICH) until the number of cells sought was obtained. After obtaining a sufficient number of cells (generally after one to 3 weeks), the first experiments were conducted using the process according to the invention. The cells were inoculated on glass coverslips in Petri dishes.
(§9) The acquisition of the results was carried out using these coverslips on an immunofluorescence microscope (Olympus model). The reading was performed directly by counting the foci obtained with the marker pH2AX on at least 50 cells in G0/G1 for each point or using dedicated image analysis software (imageJ). […]

The next series deals with 149BR (control cells). Nature of the series: pH2AX foci immunofluorescence 24 h after contacting, 149BR control fibroblasts. The settings on record: for pH2AX(24) + 2xSEM / pH2AX(24): 149BR; for pH2AX(24) + 2xSEM: 24 hours; for pH2AX(24): 24 hours after contacting. It counts as cell-based, human. As for the experimental part:
as §1, §2, §3, §4, §8, §9

Series [4] has as its system 04PSL cells. Nature of the series: Micronuclei per 100 cells (DAPI) 24 h after contacting, 04PSL. In kind it is cell-based, human. The method, then: as §1, §3, §7, §5, §6
Series [5] has as its system 04PSL cells. Nature of the series: pH2AX foci immunofluorescence 24 h after contacting, 04PSL patient skin cell line. In kind it is cell-based, human. Particulars: for pH2AX: 24 hours after contacting (Table 3); for pH2AX(24) + 2xSEM: 24 hours; for pH2AX(24 h): 24 hours after contacting (Table 1). As for the experimental part:
as §3
A skin cell sample from a patient was sampled by biopsy via the “skin punch” method known to those skilled in the art. The cell sample was then placed in DMEM medium+20% sterile fetal calf serum. The cell sample was then transferred without delay to a specialized laboratory, so that the sample remained not more than 38 hours at ambient temperature.
On receipt, the cell sample from the biopsy was established in the form of an amplifiable 04PSL cell line according to a procedure well known to culture laboratories and those skilled in the art: using particularly the trypsin dispersion, the cells are once again diluted in replenished medium and so on until the number of cells sought is obtained. […] The 04PSL line cells were inoculated on glass coverslips in Petri dishes.
The acquisition of the results was carried out using these coverslips on an immunofluorescence microscope (Olympus model). The reading was performed directly by counting the foci obtained with the marker pH2AX on at least 50 cells in G0/G1 for each point or using dedicated image analysis software (imageJ).
In order to obtain results of sufficient statistical reliability to serve as a basis for diagnosis, 3 independent series of experiments were performed.
as §6

In another series the test system is humans exposed. The settings on record: Hinkley USA; cited from earlier work.

Consider `[Cl][Cd][Cl]` [CdCl2], for which the pH2AX with HMEC cells [1] (10 μM) was determined as 1.9 foci; with HMEC cells [1] (30 μM), 3.7 foci; in the series with HMEC cells [1] (100 μM), 8.3 foci. Also, the “Reference concentration Cref” value in series [2] (determined from data of table 4) is 10 µM. For the same molecule, the “Prediction based on algorithm: concentration above which “Group III” risk” value in series [2] is reported as “predicted above 100 μM”. Besides, the Micronuclei in the series on HMEC cells [3] (10 μM) is given as 3.5 per 100 cells; in the series with HMEC cells [3] (30 μM) it was 9 per 100 cells; in the series with HMEC cells [3] (100 μM) it was 12.25 per 100 cells.

Take `O=C(O)CNCP(=O)(O)O` [glyphosate]: the “pH2AX(24) + 2xSEM” value is given as 1.856 foci with 1BR3 (control cells) (glyphosate 3 μM); 1.856 foci in the series on 1BR3 (control cells) (glyphosate 10 μM); 2.204 foci with 1BR3 (control cells) (glyphosate 30 μM); 2.32 foci with 1BR3 (control cells) (glyphosate 100 μM); 2.668 foci with 1BR3 (control cells) (glyphosate 300 μM); 0.928 foci in the series on 149BR (control cells) (glyphosate 3 μM). Moreover, the “pH2AX(24) + 2xSEM” value in the series on 149BR (control cells) (glyphosate 10 μM) came to 1.16 foci; in the series with 149BR (control cells) (glyphosate 30 μM), 1.74 foci; in the series with 149BR (control cells) (glyphosate 100 μM), 2.088 foci; with 149BR (control cells) (glyphosate 300 μM), 3.48 foci; in the series on 04PSL cells [5] (glyphosate 3 μM) it was 1.972 foci; with 04PSL cells [5] (glyphosate 10 μM), 2.088 foci. In addition, the “pH2AX(24) + 2xSEM” value with 04PSL cells [5] (glyphosate 30 μM) is on record as 4.756 foci; with 04PSL cells [5] (glyphosate 100 μM) it was 6.96 foci; in the series on 04PSL cells [5] (glyphosate 300 μM) it was 9.744 foci. Also, the “pH2AX(24)” value with 1BR3 (control cells) (glyphosate 3 μM) stood at 1.6 foci; in the series on 1BR3 (control cells) (glyphosate 10 μM), 1.6 foci; with 1BR3 (control cells) (glyphosate 30 μM) it was 1.9 foci; with 1BR3 (control cells) (glyphosate 100 μM) it was 2 foci; in the series on 1BR3 (control cells) (glyphosate 300 μM) it was 2.3 foci; in the series with 149BR (control cells) (glyphosate 3 μM) it was 0.8 foci. Further, the “pH2AX(24)” value amounted to 1 foci in the series with 149BR (control cells) (glyphosate 10 μM), 1.5 foci in the series with 149BR (control cells) (glyphosate 30 μM), 1.8 foci in the series on 149BR (control cells) (glyphosate 100 μM) and 3 foci in the series with 149BR (control cells) (glyphosate 300 μM). The “reference concentration Cref defined by NpH2AX(24 h, Cref)+2σ=2” value in the series on 1BR3 (control cells) (control cell line 1BR3) and in the series with 149BR (control cells) (control cell line 149BR) was 100 µM in each case. Besides, the Micronuclei stood at 6 per 100 cells with 04PSL cells [4] (3 μM); 4 per 100 cells with 04PSL cells [4] (10 μM); 10 per 100 cells in the series with 04PSL cells [4] (30 μM); 12 per 100 cells in the series on 04PSL cells [4] (150 μM); 14 per 100 cells in the series on 04PSL cells [4] (300 μM). Besides, the pH2AX with 04PSL cells [5] (3 μM) amounted to 1.7 foci; in the series on 04PSL cells [5] (10 μM) it was 1.9 foci; in the series with 04PSL cells [5] (30 μM), 4.8 foci; in the series with 04PSL cells [5] (100 μM), 6.5 foci; in the series on 04PSL cells [5] (300 μM), 8.7 foci. Also, the “pH2AX(24 h)” value is on record as 1.7 foci in the series on 04PSL cells [5] (glyphosate 3 μM); 1.8 foci in the series on 04PSL cells [5] (glyphosate 10 μM); 4.1 foci in the series on 04PSL cells [5] (glyphosate 30 μM); 6 foci in the series on 04PSL cells [5] (glyphosate 100 μM); 8.4 foci in the series on 04PSL cells [5] (glyphosate 300 μM). Also, the “number of pH2AX foci” value in the series with 04PSL cells [5] (glyphosate concentration of 100 μM, 24 h) was “approximately 7 foci”.

On to `[Na+].[Na+].[O]=[Cr](=[O])([O-])[O-]` [Chromium, Na2CrO4], for which, in series [2], the “Reference concentration Cref” value is 0.003 µM and the “Prediction based on algorithm: concentration above which “Group III” risk” value was “predicted above 30 nM”. In the series on humans exposed, the “Cases of poisoning, concentration in tap water (estimated)” value is “concentration in tap water was estimated at 23 Nm”; the “Cases of poisoning, concentration in well water” value is 1.19 g/L; the “Cases of poisoning, concentration in well water, equivalent” value is 4.6 mM.
